Several values for one entry are separate records, joined by “and”; a condition that tells them apart may be missing. Identical values can stand only once. Like-named read-outs stand apart in the source and are kept apart here.
Experiments:
[1] = test system: MCF7AC1 xenograft tumors; experiment: Immunoblot of MCF7AC1 xenograft tumor lysates after in vivo treatment; design: species or system mice; details: four weeks
Description: (§1) Protein lysates were prepared using the RIPA lysis buffer system (ChemCruz #sc-24948) and quantified using the DC^TM Protein Assay reagents (Bio-Rad #5000112). Equal amounts of protein lysates were separated on 10% Criterion gels (Bio-Rad #3450112), transferred to PVDF membranes (Bio-Rad #1620177), blocked in TBST-5% milk and probed with primary antibodies listed in Supplementary Table 5, at the indicated dilutions. Membranes were incubated with HRP-conjugated anti-rabbit (CST #7074) or anti-mouse (CST #7076) secondary antibodies and visualized using chemiluminescent West Pico (Thermo Scientific #34580) or West Femto (Thermo Scientific #34096) reagents and a Li-Cor Odyssey® XF imager. Protein lysates from the MCF7AC1 xenograft model were obtained from a previous study. Quantitation of the protein bands signal intensity was performed using the NIH ImageJ image analysis software (https://imagej.nih.gov/ij///index.html). For the quantitation of the phospho protein levels, we first normalized total protein levels to β-actin loading control and used these values to normalize the phospho protein levels and compared change in protein expression levels relative to vehicle control normalized to 1.0. For the quantitation of total protein levels, we normalized the total protein levels to β-actin and compared change in expression levels relative to vehicle control normalized to 1.0. All blots were processed in parallel and derived from the same experiments. Unprocessed immunoblot images are provided in Supplementary Figs. 9–13.
Supplementary Figure 2. […]
Supplementary Figure 6. […]
MK-2206 in CSS medium for 24 hours. IB assay of pAKTSer473, AKT, PARP, cleaved PARP and
β-actin. d, MCF7AC1 xenograft protein lysates were treated with the indicated drugs for four
weeks. […]
ANOVA for figs. (a), (b), (g), (h) and (i) and unpaired t test for fig. (e).

[2] = test system: PKCβ1 and AKT^Ser473 phosphorylation in HEK293F cells; experiment: Immunoblot of PKCβ1 and pAKT^Ser473, HEK293F; format: cell-based, human; details: 5 µM, 2 h pretreatment, 100 nM insulin 1 h
Source text: To determine whether the observed effects of ENDX on PKCβ1 degradation and AKT^Ser473 phosphorylation inhibition are dependent on the presence of ERα, we additionally evaluated ENDX effects on PKCβ1 degradation and AKT^Ser473 phosphorylation in the ER negative (ER-) MDAMB231 breast cancer cells and nonbreast HEK293F cells, a human embryonic kidney cell line, both of which express higher amounts of PKCβ1 compared to ERα+ MCF7AC1 cells (Supplementary Fig. 5a). […] To determine whether the addition of ERα to the MDAMB231 cell line could facilitate ENDX effects on PKCβ1, we performed doxycycline (dox)-induced ERα protein expression in MDAMB231 cells and evaluated ENDX effects on PKCβ1 using the above-mentioned experimental conditions. […] Additionally, we pretreated MDAMB231 and HEK293F cells with or without 5 µM ENDX for 1 h followed by 0 or 200 nM PMA treatment for 20 min and evaluated effects on PKCβ1.
Supplementary Figure 5. Effects of ENDX on PKCβ1, phospho -PKCB1Ser661 and phospho-AKTSer473 expression levels in ERα- breast cancer cells. a, Basal expression of PKCβ1 and ERα in the indicated cell lines. […]

[3] = target: PKC gamma (PKCg) (Homo sapiens, UniProt P05129); experiment: In vitro kinase assay, PKC gamma; format: biochemical; details: 10 μM ATP
Source text: (§2) Supplementary Table 4. In vitro kinase assay showing the IC 50 concentration of ENDX and
(§3) of the 12 PKC family members.
(§4) (1 picture or pasted object on this page, not shown here)

[4] = mice, cited from earlier work; for Cmax: read-out: Plasma Cmax
[5] = target: PKC iota (PKCi) (Homo sapiens, UniProt P41743); experiment: In vitro kinase assay, PKC iota; format: biochemical; details: 10 μM ATP
Chain of PKC iota (PKCi) (P41743 whole entry): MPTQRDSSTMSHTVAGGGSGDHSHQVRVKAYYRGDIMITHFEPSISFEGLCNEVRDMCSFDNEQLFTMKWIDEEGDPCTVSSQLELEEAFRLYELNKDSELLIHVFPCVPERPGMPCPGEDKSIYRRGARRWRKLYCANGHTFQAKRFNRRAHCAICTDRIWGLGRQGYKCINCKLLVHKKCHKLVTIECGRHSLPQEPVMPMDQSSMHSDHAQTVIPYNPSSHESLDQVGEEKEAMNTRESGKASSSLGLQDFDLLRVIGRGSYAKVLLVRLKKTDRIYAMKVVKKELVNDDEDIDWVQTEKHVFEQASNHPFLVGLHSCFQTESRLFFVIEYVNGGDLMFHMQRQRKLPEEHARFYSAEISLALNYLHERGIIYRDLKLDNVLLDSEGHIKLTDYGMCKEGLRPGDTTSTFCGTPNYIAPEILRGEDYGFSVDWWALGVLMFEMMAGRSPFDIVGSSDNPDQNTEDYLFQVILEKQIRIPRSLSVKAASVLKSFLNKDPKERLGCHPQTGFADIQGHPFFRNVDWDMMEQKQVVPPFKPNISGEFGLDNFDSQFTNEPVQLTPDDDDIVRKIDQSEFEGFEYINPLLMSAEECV
Source text: as §2, §3, §4

[6] = test system: AKT phosphorylation (pAKT^Ser473, pAKT^Thr308, p-AKT substrates) in MCF7AC1 cells; experiment: Immunoblot of AKT signaling and PARP cleavage, MCF7AC1; format: cell-based, human
Description: The ENDX hydrochloride utilized in this study was synthesized in collaboration between Mayo Clinic and National Institute of Health (NIH). Estrogen deprived MCF7AC1 were treated with vehicle control or ENDX (National Cancer Institute) for 24 h. […] For the insulin (Sigma-Aldrich, #I0516) experiments, MCF7AC1 and T47D cells were maintained in serum-free medium for 24 h prior to pretreatment with vehicle control or drugs for 2 h followed by treatment with 100 nM insulin for 1 h.
as §1

[7] = test system: ERα+/HER2- metastatic breast cancer; details: cited from earlier work
[8] = target: PKC beta 2 (PKCb2) (Homo sapiens, UniProt P05771); experiment: In vitro kinase assay, PKC beta 2; format: biochemical; details: 10 μM ATP
Chain of PKC beta 2 (PKCb2) (P05771 1-673 isoform P05771-2): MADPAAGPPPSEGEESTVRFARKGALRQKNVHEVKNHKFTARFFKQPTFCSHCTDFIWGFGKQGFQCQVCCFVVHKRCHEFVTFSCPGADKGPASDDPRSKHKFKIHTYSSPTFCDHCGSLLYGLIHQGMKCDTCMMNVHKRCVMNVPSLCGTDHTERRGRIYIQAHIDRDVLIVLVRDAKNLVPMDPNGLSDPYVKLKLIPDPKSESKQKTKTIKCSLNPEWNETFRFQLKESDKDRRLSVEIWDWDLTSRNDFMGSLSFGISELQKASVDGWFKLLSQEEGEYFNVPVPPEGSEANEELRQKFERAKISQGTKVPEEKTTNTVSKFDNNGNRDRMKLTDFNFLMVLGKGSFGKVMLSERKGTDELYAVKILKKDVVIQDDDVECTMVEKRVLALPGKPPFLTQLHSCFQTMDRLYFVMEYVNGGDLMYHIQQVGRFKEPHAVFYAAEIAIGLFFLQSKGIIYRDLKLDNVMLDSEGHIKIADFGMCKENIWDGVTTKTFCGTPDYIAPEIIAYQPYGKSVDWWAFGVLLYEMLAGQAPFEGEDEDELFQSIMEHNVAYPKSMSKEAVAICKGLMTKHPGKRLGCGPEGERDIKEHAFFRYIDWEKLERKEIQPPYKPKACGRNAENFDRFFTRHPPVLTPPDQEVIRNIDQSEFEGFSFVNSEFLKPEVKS
Source text: as §2, §3, §4

[9] = target: PKCβ1 (Homo sapiens, UniProt P05771); experiment: In vitro kinase assay, PKCβ1 kinase activity; format: biochemical; details: 10 μM ATP, three-fold serial dilution from 50 μM, Fig. 6d
Chain of PKCβ1 (P05771 whole entry): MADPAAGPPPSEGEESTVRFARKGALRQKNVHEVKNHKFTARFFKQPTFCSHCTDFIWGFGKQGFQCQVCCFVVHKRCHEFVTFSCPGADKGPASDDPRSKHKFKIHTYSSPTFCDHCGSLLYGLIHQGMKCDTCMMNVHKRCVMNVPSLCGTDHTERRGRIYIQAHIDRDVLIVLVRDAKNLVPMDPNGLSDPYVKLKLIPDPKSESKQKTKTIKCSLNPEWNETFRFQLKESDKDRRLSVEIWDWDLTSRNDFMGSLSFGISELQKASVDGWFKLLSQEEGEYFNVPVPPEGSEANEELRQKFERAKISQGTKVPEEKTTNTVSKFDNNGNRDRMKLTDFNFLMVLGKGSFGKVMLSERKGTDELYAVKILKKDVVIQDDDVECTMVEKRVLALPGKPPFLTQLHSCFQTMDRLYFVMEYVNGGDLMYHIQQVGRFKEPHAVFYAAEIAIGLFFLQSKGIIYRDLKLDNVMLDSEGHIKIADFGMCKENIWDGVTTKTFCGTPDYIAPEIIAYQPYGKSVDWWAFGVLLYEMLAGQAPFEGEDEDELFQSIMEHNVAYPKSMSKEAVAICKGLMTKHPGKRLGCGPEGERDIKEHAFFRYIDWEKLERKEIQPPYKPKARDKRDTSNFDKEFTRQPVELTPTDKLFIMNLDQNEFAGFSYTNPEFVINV

[10] = CSS medium, 24 h, not at 0.01 and 0.1 μM

Q: For `CC/C(=C(\c1ccc(O)cc1)c1ccc(OCCNC)cc1)c1ccccc1` [ENDX, Z-endoxifen], which “Effect on AKT phosphorylated substrates in tumors” value ([1]; 75 mg/kg) is on record?
A: reduced the levels of AKT phosphorylated substrates

Q: And the “Effect on AKT^Thr308 phosphorylation in tumors” value ([1]; 75 mg/kg)?
A: no appreciable impact on AKT^Thr308 phosphorylation

Q: And the “Effect on AKT^Ser473 phosphorylation in tumors” value ([1]; 75 mg/kg, vs control treatment)?
A: attenuated AKT^Ser473 phosphorylation

Q: And the “Dose increasing PARP cleavage in tumors” value ([1]; not at 25 mg/kg)?
A: 75 mg/kg

Q: What about the “Effect on PKCβ1 protein levels” value [2] of the same compound?
A: did not impact PKCβ1 protein levels

Q: What about the “Effect on insulin induced AKT^Ser473 phosphorylation” value [2] of the same compound?
A: did not inhibit this phosphorylation

Q: What about the IC50 [3] of the same compound?
A: 49.7 µM

Q: What about the Plasma concentration ([4]; 25 mg/kg for five consecutive days, 25 mg/kg) of the same compound?
A: 73.1 ± 16.8 ng/ml and 0.20 ± 0.04 µM

Q: What about the Plasma concentration ([4]; 100 mg/kg for five consecutive days, 100 mg/kg) of the same compound?
A: 1700 ± 60 ng/ml and 4.55 ± 0.16 µM

Q: What about the “Plasma Cmax” value ([4]; single dose 25 mg/kg) of the same compound?
A: 103 ± 97 ng/mL

Q: And the Cmax ([4]; single dose 25 mg/kg)?
A: 280 ± 260 nM

Q: What about the “Plasma Cmax” value ([4]; single dose 75 mg/kg) of the same compound?
A: 660 ± 511 ng/mL

Q: What about the Cmax ([4]; single dose 75 mg/kg) of the same compound?
A: 1770 ± 1370 nM

Q: What about the IC50 [5] of the same compound?
A: > 50 µM

Q: And the “Effect on AKT^Thr308 phosphorylation” value ([6]; CSS medium, 24 h, 5 µM)?
A: did not alter AKT^Thr308 phosphorylation

Q: What about the “Concentration increasing PARP cleavage” value ([6]; CSS medium, 24 h, 0.01, 0.1 and 5 µM tested) of the same compound?
A: 5 µM

Q: And the “Effect on AKT^Thr308 phosphorylation” value ([6]; CSS medium, 24 h, 0.01 and 0.1 µM)?
A: stimulated AKT^Thr308 phosphorylation

Q: And the “Concentration attenuating AKT^Ser473 phosphorylation” value [6, 10]?
A: 5 µM

Q: What about the “Concentration reducing phosphorylation of AKT substrates” value [6, 10] of the same compound?
A: 5 µM

Q: And the “Effect on insulin-stimulated AKT^Thr308 phosphorylation” value ([6]; serum starved, 100 nM insulin 1 h, 5 μM)?
A: able to block AKT^Thr308 phosphorylation

Q: What about the “Effect on insulin-stimulated phosphorylation of AKT substrates” value ([6]; serum starved, 2 h pretreatment, 100 nM insulin 1 h, 5 µM) of the same compound?
A: diminished insulin-stimulated phosphorylation of AKT substrates

Q: And the “Concentration blocking insulin-stimulated AKT^Ser473 phosphorylation” value ([6]; serum starved, 2 h pretreatment, 100 nM insulin 1 h, not at 0.01 and 0.1 μM)?
A: 5 µM

Q: And the “Effect on PMA-stimulated AKT^Ser473 phosphorylation” value ([6]; serum starved, 2 h pretreatment, 200 nM PMA 20 min, 5 μM)?
A: reduced AKT^Ser473 phosphorylation

Q: And the “PFS hazard ratio (HR) ENDX vs TAM, CDK4/6i naïve patients” value ([7]; 95% CI 0.22–0.80)?
A: 0.42

Q: And the “PFS hazard ratio (HR) ENDX vs TAM, overall” value ([7]; 95% CI 0.49–1.22)?
A: 0.77

Q: What about the “PFS in CDK4/6 inhibitor naïve patients” value ([7]; CDK4/6i naïve) of the same compound?
A: 7.2 m

Q: And the “Progression free survival (PFS) overall” value ([7]; women with ERα+/HER2- metastatic breast cancer progressed on endocrine therapy)?
A: 4.3 m

Q: What about the IC50 [8] of the same compound?
A: 43.3 µM

Q: And the IC50 [9]?
A: 357 nM and 360 nM

— PMC10730845, “Endoxifen downregulates AKT phosphorylation through protein kinase C beta 1 inhibition in ERα+ breast cancer” (NPJ Breast Cancer, 2023)
